Measured values taken from US12502369B2, “Methods of cancer treatment” (K-GEN, INC., priority 2015, dated 2025).
Read-outs that look alike come from different tables or passages of the source.

What was measured:
Format in all cases: cell-based
AsPC-1 = experiment: Proliferation assay (CellTiter Glo), AsPC-1; conditions: for Top inhibition %: 96 hours
Description: (§1) Briefly, cells at a density of 1,000-10,000 cells/well were seeded in 96-well plates and incubated at 37′C for 24 hours. A series of 9 different concentrations of compound stocks (500×) were created by 3-fold serial dilution in DMSO. These compounds were further diluted in culture media and then added to cells so that the final DMSO concentration was 0.2%. After 96 hours of incubation, 50 μL of CellTiter Glo reagent (Promega) was added to each well and luminescence was measured after 10 minutes using EnVision (PerkinElmer). […] The dose range for most compounds was 4.6 nM-30 μM. The dose ranges for some compounds were adjusted downward to 0.46 nM-3 μM or 0.08 nM-0.5 μM or 0.03 nM-0.2 μM. Luminescence from cells treated with […] alone was set as Max and % of inhibition was calculated as follows: Inhibition %=(Max-Sample value)/Max*100. Data was analyzed using XL-fit software (ID Business Solutions Ltd.) and EC50, relative EC50, and % of top inhibition were calculated. The results are shown in Tables 3-6 for pancreatic cancer, lung cancer, colon/gastric cancer, and leukemia cell lines.

H727 = experiment: Proliferation assay (CellTiter Glo), H727; conditions: for Top inhibition %: 96 hours
Description: as §1

RPMI8226 = experiment: Proliferation assay (CellTiter Glo), RPMI8226; conditions: RPMI8226 (K-ras: G12A)
Description: as §1, with “calculated.” for “calculated. The results are shown in Tables 3-6 for pancreatic cancer, lung cancer, colon/gastric cancer, and leukemia cell lines.”
Other cancer cell lines having wild-type K-ras status and K-ras mutation at G12 were also screened using the PKC activator compounds. […] K-104 was tested in a range of 0.03 nM-0.2 μM. […] The dose ranges were adjusted downward to 0.46 nM-3 μM for K-102 and 0.08 nM-0.5 μM for K-103 for some cell lines.

A549 cells = experiment: Soft agar colony formation assay; conditions: 7-10 days, 9-point dilution series
Description: To prepare the base agar layer (0.6%), melted 1.2% agar solution was mixed 1:1 (v/v) with 2×DMEM/20% FBS medium in a tube by inverting several times and 50 μL of the mixture was immediately transferred to a well in a 96-well flat-bottom microplate. The plate was placed at 4° C. for 30 minutes to allow the base agar layer to solidify. Then, the cell agar layer (agar 0.4%) was prepared by transferring 75 μL of the cell and agar mixture containing 1:1:1 (v/v/v) of 1.2% agar solution, 2×DMEM/20% FBS and cell suspension (0.4-4×10^5/mL) to each well of the plates so that each well contained 1000-10000 cells per well. The plates were placed at 4° C. for 15 minutes and then 75 μL of media were added to each well. After incubating the plates overnight in a CO2 incubator, 50 μL of media with or without 5× final concentrations of compounds were added to each well. Each compound was tested in 9-point 3-fold dilution series. The plates were incubated for 7-10 days at 37° C. At the end of incubation period, 28 μL of Calcein AM solution (5 μM) was added to the center of each well. The plates were incubated at 37° C. for 45 minutes before scanning on Acumen (TTP Labtech). Each compound was tested in triplicates. Data was analyzed and compound EC50s were calculated using GraphPad Prism 5.

[1] = tested on: PKC substrates in A549 cells; experiment: Global PKC activation (phosphorylated PKC substrates), Western blot, A549; conditions: 30 minutes, Phospho-PKC substrate Motif MultiMab
Description: (§2) A549 lung cancer cells (˜3 million cells) were seeded in 10 cm tissue culture dishes and grown overnight. Cells were then treated with different drugs at indicated concentrations (see FIG. 9A for global activation of PKC and FIG. 10 for activation of PKC isoforms) for 30 minutes. Panc2.13 pancreatic cells (˜5 million) were seeded and treated as in FIG. 9B for global activation of PKC. Cell lysate preparation, protein quantitation, SDS-PAGE, and Western blotting procedures are described in Example 2. Primary antibodies used in this Example and later Examples of this application are shown in Table A. Western blot membranes were scanned using Odyssey® Imaging System (Licor Biosciences) if secondary antibodies Anti-mouse IgG Dylight 800 conjugate or Anti-rabbit IgG DyLight 680 conjugate (1:10000)(Cell signaling or similar IR 2nd antibodies from different vendors) were used. Alternatively, Imagequant LAS4000 (GE) was used to scan membranes if secondary antibodies Anti-mouse IgG HRP conjugate or Anti-rabbit IgG HRP conjugate (dilutions from 1:2000-1:10000) were used.

[2] = tested on: PKC substrates in Panc2.13 cells; experiment: Global PKC activation (phosphorylated PKC substrates), Western blot, Panc2.13; conditions: Phospho-(Ser) PKC Substrate Antibody
Description: as §2

[3] = tested on: PKC isoforms in A549 cells; experiment: Activation of PKC isoforms, Western blot, A549; conditions: 30 minutes; for P-PKC (pan)(βII Ser660) and P-PKCα/β (Thr638/641): high levels already in DMSO treated cells
Description: as §2

[4] = absolute EC50, 96 hours, read-out: Ab EC50
[5] = relative EC50, 96 hours, read-out: Re EC50

Row | Compound | Top inhibition % (AsPC-1) [%] | EC50 (AsPC-1; Homo sapiens, ASPC1, absolute EC50, 96 hours, read-out: Ab EC50) [nM] | EC50 (AsPC-1; Homo sapiens, ASPC1, relative EC50, 96 hours, read-out: Re EC50) [nM] | Top inhibition % (H727) [%] | EC50 (H727; Homo sapiens, NCI-H727, absolute EC50, 96 hours, read-out: Ab EC50) [nM] | EC50 (H727; Homo sapiens, NCI-H727, relative EC50, 96 hours, read-out: Re EC50) [nM] | Top inhibition % (RPMI8226) [%] | number of colonies formed in soft agar (A549 cells) | phosphorylation of PKC substrates (global activation of PKC) [1] | phosphorylation of PKC substrates (global activation of PKC) [2] | P-PKCδ (Thr505) and P-PKCδ/θ (Ser643/676) [3] | P-PKC (pan)(βII Ser660) and P-PKCα/β (Thr638/641) [3] | EC50 (AsPC-1; [4]) [nM] | EC50 (AsPC-1; [5]) [nM] | EC50 (H727; [4]) [nM] | EC50 (H727; [5]) [nM]
1 | CC(=O)O[C@@]12C[C@@H](C)[C@]3(O)C4C=C(C)C(=O)[C@@]4(O)CC(CO)=C[C@H]3[C@@H]1C2(C)C (stereo partly shown) [Compound K-101A, Prostratin] | 32.4 | > 30000 | 270 | 48.3 | > 30000 | 190 | 32.39 | reduced the number of colonies | induced dose-dependent phosphorylation | induced dose-dependent phosphorylation | dose-dependent increases | no further increases | – | – | – | –
2 | CC(=O)OCC1=C[C@H]2[C@@H]3C(C)(C)[C@]3(OC(C)=O)C[C@@H](C)[C@]2(O)C2C=C(C)C(=O)[C@@]2(O)C1 (stereo partly shown) [Compound K-101E] | 35.2 | – | – | 49.1 | – | – | 32.25 | reduced the number of colonies | nearly no effect | nearly no effect | no effects | – | > 30000 | 2780 | > 30000 | 620
3 | C/C=C(/C)C(=O)O[C@H]1C(C)=C[C@]23C(=O)[C@@H](C=C(CO)[C@@H](O)[C@]12O)[C@H]1[C@@H](C[C@H]3C)C1(C)C [Compound K-102, Ingenol-3-angelate, reference compound] | – | – | – | – | – | – | – | reduced the number of colonies | induced dose-dependent phosphorylation | induced dose-dependent phosphorylation | dose-dependent increases | no further increases | – | – | – | –
